Laboratory results from US20260138961A1, “MODULATORS OF MITOCHONDRIAL DNA REPLICATION” (Pretzel Therapeutics, Inc., priority 2022, published 2026).

biological target: T1, POLγA:A467T (Homo sapiens, UniProt P54098, A467T); assay: DNA polymerization assay, POLγA:A467T mutant; type: biochemical; settings: stimulation of polymerase activity, primed M13mp18 ssDNA, 37° C. 2 hours; read-out: A467T AC50
T1 sequence (P54098 1-1239 A467T): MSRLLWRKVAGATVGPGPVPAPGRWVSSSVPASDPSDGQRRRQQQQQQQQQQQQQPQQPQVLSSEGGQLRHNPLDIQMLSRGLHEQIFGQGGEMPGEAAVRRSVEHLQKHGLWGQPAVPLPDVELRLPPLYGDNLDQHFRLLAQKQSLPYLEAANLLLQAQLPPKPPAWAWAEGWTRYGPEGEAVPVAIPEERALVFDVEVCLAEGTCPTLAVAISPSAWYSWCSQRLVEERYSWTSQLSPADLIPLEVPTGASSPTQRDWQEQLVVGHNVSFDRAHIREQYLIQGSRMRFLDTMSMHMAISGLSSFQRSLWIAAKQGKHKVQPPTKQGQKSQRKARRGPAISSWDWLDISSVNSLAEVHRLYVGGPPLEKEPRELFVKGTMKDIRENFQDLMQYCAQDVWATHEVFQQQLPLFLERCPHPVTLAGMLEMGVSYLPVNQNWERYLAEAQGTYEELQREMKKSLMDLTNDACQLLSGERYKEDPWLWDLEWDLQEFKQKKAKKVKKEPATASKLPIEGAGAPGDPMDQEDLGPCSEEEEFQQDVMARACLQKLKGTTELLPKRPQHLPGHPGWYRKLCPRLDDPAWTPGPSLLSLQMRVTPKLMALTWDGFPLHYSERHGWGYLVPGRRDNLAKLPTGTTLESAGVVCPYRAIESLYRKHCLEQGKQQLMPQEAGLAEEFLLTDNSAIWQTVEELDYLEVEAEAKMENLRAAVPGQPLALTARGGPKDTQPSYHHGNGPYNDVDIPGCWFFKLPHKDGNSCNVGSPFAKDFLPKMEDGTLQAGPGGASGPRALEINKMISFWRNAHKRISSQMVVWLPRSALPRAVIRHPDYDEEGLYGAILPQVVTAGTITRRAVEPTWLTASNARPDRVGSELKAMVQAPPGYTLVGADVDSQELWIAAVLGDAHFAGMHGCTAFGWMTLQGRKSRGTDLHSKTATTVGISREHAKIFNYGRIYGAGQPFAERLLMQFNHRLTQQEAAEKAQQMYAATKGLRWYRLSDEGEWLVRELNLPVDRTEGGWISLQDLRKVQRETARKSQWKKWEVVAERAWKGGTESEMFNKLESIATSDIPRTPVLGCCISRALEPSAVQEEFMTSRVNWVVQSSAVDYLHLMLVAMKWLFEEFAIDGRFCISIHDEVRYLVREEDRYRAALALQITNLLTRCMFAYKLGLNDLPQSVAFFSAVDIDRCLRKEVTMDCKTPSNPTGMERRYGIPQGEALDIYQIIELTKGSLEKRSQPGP
T1 sequence (Q9UHN1 1-485 partner): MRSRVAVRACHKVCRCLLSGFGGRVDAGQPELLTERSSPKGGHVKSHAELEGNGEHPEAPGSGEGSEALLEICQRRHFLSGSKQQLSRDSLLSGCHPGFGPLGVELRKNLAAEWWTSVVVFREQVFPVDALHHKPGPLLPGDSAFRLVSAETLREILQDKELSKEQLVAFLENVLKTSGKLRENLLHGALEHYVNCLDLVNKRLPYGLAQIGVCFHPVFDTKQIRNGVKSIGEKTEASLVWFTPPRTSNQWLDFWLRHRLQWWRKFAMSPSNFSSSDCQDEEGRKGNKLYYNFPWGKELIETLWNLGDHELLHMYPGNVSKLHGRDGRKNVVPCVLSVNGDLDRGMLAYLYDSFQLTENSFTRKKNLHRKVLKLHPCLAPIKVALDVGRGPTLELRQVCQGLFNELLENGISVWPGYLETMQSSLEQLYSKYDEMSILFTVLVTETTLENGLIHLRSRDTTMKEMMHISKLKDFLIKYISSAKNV

Structure (SMILES)	AC50 [µM]
Cc1cc(S(=O)(=O)Nc2ccc3ccn(C)c3c2)c(C)cc1Cl [Example 72, 4-chloro-2,5-dimethyl-N-(1-methyl-1H-indol-6-yl)benzenesulfonamide]	37
Cc1nc2ccc(NS(=O)(=O)c3cc(C)c(Cl)cc3C)cc2s1 [Example 73, 4-chloro-2,5-dimethyl-N-(2-methylbenzo[d]thiazol-6-yl)benzenesulfonamide]	16
Cc1cc(S(=O)(=O)Nc2ccc3nc(-c4ccccc4)sc3c2)c(C)cc1Cl [Example 74, 4-chloro-2,5-dimethyl-N-(2-phenylbenzo[d]thiazol-6-yl)benzenesulfonamide]	> 100
Cc1nc2cc(NS(=O)(=O)c3cc(C)c(Cl)cc3C)ccc2o1 [Example 75, 4-chloro-2,5-dimethyl-N-(2-methylbenzo[d]oxazol-5-yl)benzenesulfonamide]	> 100
Cc1cc(S(=O)(=O)Nc2cccc(-c3ncc(C4CC4)s3)c2)c(C)cc1Cl [Example 76, 4-chloro-N-(3-(5-cyclopropylthiazol-2-yl)phenyl)-2,5-dimethylbenzenesulfonamide]	3
Cc1cc(S(=O)(=O)Nc2ccccc2-c2ncco2)c(C)cc1Cl [Example 77, 4-chloro-2,5-dimethyl-N-(2-(oxazol-2-yl)phenyl)benzenesulfonamide]	> 100
Cc1cnc(-c2cccc(S(=O)(=O)Nc3cc(C)c(Cl)cc3C)c2)s1 [Example 78, N-(4-chloro-2,5-dimethylphenyl)-3-(5-methylthiazol-2-yl)benzenesulfonamide]	> 100
Cc1cnc(-c2ccccc2NS(=O)(=O)c2cc(C)c(Cl)cc2C)s1 [Example 79, 4-chloro-2,5-dimethyl-N-(2-(5-methylthiazol-2-yl)phenyl)benzenesulfonamide]	> 100
Cc1csc(-c2ccccc2NS(=O)(=O)c2cc(C)c(Cl)cc2C)n1 [Example 80, 4-chloro-2,5-dimethyl-N-(2-(4-methylthiazol-2-yl)phenyl)benzenesulfonamide]	> 100
Cc1cc(S(=O)(=O)Nc2csc(-c3ccccc3)n2)c(C)cc1Cl [Example 81, 4-chloro-2,5-dimethyl-N-(2-phenylthiazol-4-yl)benzenesulfonamide]	3
Cc1cc(S(=O)(=O)NC2CCOc3c(Cl)cccc32)c(C)cc1Cl (stereo not shown) [Example 82, 4-chloro-N-(8-chlorochroman-4-yl)-2,5-dimethylbenzenesulfonamide]	> 100
Cc1cnc(-c2ccc(NS(=O)(=O)c3cc(C)c(Cl)cc3C)cc2)s1 [Example 83, 4-chloro-2,5-dimethyl-N-(4-(5-methylthiazol-2-yl)phenyl)benzenesulfonamide]	> 100
Cc1cc(S(=O)(=O)Nc2cc(-c3ccccc3)no2)c(C)cc1Cl [Example 84, 4-chloro-2,5-dimethyl-N-(3-phenylisoxazol-5-yl)benzenesulfonamide]	> 100
Cc1nc2cccc(NS(=O)(=O)c3cc(C)c(Cl)cc3C)c2s1 [Example 85, 4-chloro-2,5-dimethyl-N-(2-methylbenzo[d]thiazol-7-yl)benzenesulfonamide]	> 100
Cc1cc(S(=O)(=O)Nc2ccc(-c3ncc(CN(C)C)s3)cc2)c(C)cc1Cl [Example 86, 4-chloro-N-(4-(5-((dimethylamino)methyl)thiazol-2-yl)phenyl)-2,5-dimethylbenzenesulfonamide]	> 100
COC(=O)c1cnc(-c2cccc(NS(=O)(=O)c3cc(C)c(Cl)cc3C)c2)s1 [Example 88, methyl 2-(3-((4-chloro-2,5-dimethylphenyl)sulfonamido)phenyl) thiazole-5-carboxylate]	> 100
Cc1cc(S(=O)(=O)Nc2cccc(-c3ncc(CO)s3)c2)c(C)cc1Cl [Example 89, 4-chloro-N-(3-(5-(hydroxymethyl)thiazol-2-yl)phenyl)-2,5-dimethylbenzenesulfonamide]	8
Cc1cc(S(=O)(=O)Nc2cccc(-c3ncc(C(=O)O)s3)c2)c(C)cc1Cl [Example 90, 2-(3-((4-chloro-2,5-dimethylphenyl)sulfonamido)phenyl) thiazole-5-carboxylic acid]	> 100
Cc1cc(S(=O)(=O)Nc2cccc(C(=O)N3CCCN(C(=O)C(C)C)CC3)c2)c(C)cc1Cl [Example 91, 4-chloro-N-(3-(4-isobutyryl-1,4-diazepane-1-carbonyl)phenyl)-2,5-dimethylbenzenesulfonamide]	> 100
